Measurements published in US20130039897A1, “COMPOSITIONS AND METHODS FOR REGULATING NEUTROPHIL MOVEMENT AND NEUTROPHIL NUMBERS IN A BODY REGION” (The Texas A&M University System, priority 2011, published 2013).

System: human neutrophils
Assay: Insall chamber assay with DPPIV enzyme inhibitors, with or without rDPPIV
Format: cell-based
Conditions: FIG. 5; for chemorepulsion of neutrophils away from the source of rDPPIV: inhibitor added with rDPPIV, compared to rDPPIV alone; for attraction or repulsion of human neutrophils: inhibitor alone
Description: Cover slips were then washed twice with PBS, and neutrophils at approximately 5×10^6 cells/ml were allowed to adhere to the coverslip for 15 minutes at 37° C. Two concentric depressions and the separating bridge in an Insall chamber slide were filled with 2% (w/v) BSA-RPMI. The media was removed from the coverslips, which were then placed face down on the chamber. Media was then removed from the outer chamber and was replaced by rDPPIV alone, DPPIV inhibitor alone (Diprotin A, Enzo Life Sciences or DPPI 1 c hydrochloride, Tocris Bioscience (Bristol, UK)), rDPPIV plus DPPIV inhibitor (all in 2% (w/v) BSA-RPMI), or 2% (w/v) BSA-RPMI. Cells located on the bridge between the square depressions were then filmed using the methods of Ochsner, S. A., et al., Disrupted function of tumor necrosis factor-alpha-stimulated gene 6 blocks cumulus cell-oocyte complex expansion. Endocrinology, 2003. 144(10): p. 4376-84, incorporated in material part by reference herein, using a 10× objective for 1 hour at 37° C. in a humidified 5% CO2 incubator. The displacement of at least 10 randomly-chosen cells per experiment was measured over periods of 10 minutes. Cell tracking and track analysis were performed according to the methods of Phillips, J. E. and R. H. Gomer, A secreted protein is an endogenous chemorepellant in Dictyostelium discoideum. Proc Natl Acad Sci U S A, 2012. 109(27): p. 10990 - 10996, incorporated in material part by reference herein, with the exception that videos of an hour in length were processed into 10 minute segments to yield a TIFF stack of 47 images for analysis (with 13-second intervals between images).
DPPIV enzyme activity has been implicated in chemotaxis of hematopoietic stem cells through cleavage of SDF-1. To determine if DPPIV enzyme activity is responsible for neutrophil chemorepulsion, two enzyme inhibitors of DPPIV, Diprotin A and DPPI 1 c HCl, were used in Insall chamber assays along with DPPIV.

| Structure (SMILES) | chemorepulsion of neutrophils away from the source of rDPPIV | attraction or repulsion of human neutrophils |
| --- | --- | --- |
| CC[C@H](C)[C@H](N)C(=O)N1CCC[C@H]1C(=O)N[C@H](C(=O)O)[C@@H](C)CC [Diprotin A] | significantly reduced | caused no attraction or repulsion |
| Cl.N#C[C@@H]1CC[C@H](C#N)N1C(=O)CNC1(CO)CCCC1 [DPPI 1 c HCl, DPPI 1 c hydrochloride] | significantly reduced | caused no attraction or repulsion |
